Test results: US6767991B1, “Hepatitis C inhibitor peptides” (priority 1997, dated 2004)
*1 amine or outer side, *2 acyl side, *3 side chain or, on linkers, in order; H or OH if unused. Where a SMILES comes first, the peptide text is derived from it. Where no end group is shown, it is not given here. [ ]: non-standard residue; d: D form. The star is where a group is joined. Acca(2-Et,1R,2R) = CC[C@@H]1C[C@]1(N)C(=O)O; CH2(1-naphthyl) = c1ccc2c(C*)cccc2c1; mXylylene = c1cc(C[*:1])cc(C[*:2])c1; Hyp = O=C(O)[C@@H]1C[C@@H](O)CN1; Chg = N[C@H](C(=O)O)C1CCCCC1; Nva = CCC[C@H](N)C(=O)O; Meb = Cc1ccc(C*)cc1

Tests used:
[1] = target: T1, recombinant HCV NS3 protease type 1b (Hepatitis C virus genotype 1b, UniProt P26663); experiment: Recombinant HCV NS3 protease radiometric assay; assay type: biochemical, HCV genotype 1b
T1 construct: recombinant HCV NS3 protease (amino acid 1027 to 1206) was cloned in the pET11d bacterial expression vector; made in house; host or cells: E. coli BL21(DE3)pLysS
Text: Cloning, Expression and Purification of the Recombinant HCV NS3 Protease type 1b.
Serum from an HCV-infected patient was obtained through an external collaboration (Bernard Willems MD, Hôpital St-Luc. Montréal. Canada and Dr. Donald Murphy, Laboratoire de Santé Publique du Québec, Ste-Anne de Bellevue, Canada). An engineered full-length cDNA template of the HCV genome was constructed from DNA fragments obtained by reverse transcription-PCR (RT-PCR) of serum RNA and using specific primers selected on the basis of homology between other genotype 1b strains. From the determination of the entire genomic sequence, a genotype 1b was assigned to the HCV isolate according to the classification of Simmonds et al. (J. Clin. Microbiol., (1993), 31, p.1493-1503). […] A DNA fragment encoding the polyprotein precursor (NS3/NS4A/NS4B/NS5A/NS5B) was generated by PCR and introduced into eukaryotic expression vectors. […] The mature NS3 protein was not observed with expression of a polyprotein precursor containing the mutation S1165A, which inactivates the NS3 protease, confirming the functionality of the HCV NS3 protease.
The DNA fragment encoding the recombinant HCV NS3 protease (amino acid 1027 to 1206) was cloned in the pET11d bacterial expression vector. The NS3 protease expression in E. coli BL21(DE3)pLysS was induced by incubation with 1 mM IPTG for 3 h at 22° C. A typical fermentation (18 L) yielded approximately 100 g of wet cell paste. The cells were resuspended in lysis buffer (3.0 mL/g) consisting of 25 mM sodium phosphate, pH 7.5, 10% glycerol (v/v), 1 mM EDTA, 0.01% NP-40 and stored at −80° C. Cells were thawed and homogenized following the addition of 5 mM DTT. Magnesium chloride and DNase were then added to the homogenate at final concentrations of 20 mM and 20 μg/mL respectively. After a 25 min incubation at 4° C., the homogenate was sonicated and centrifuged at 15000×g for 30 min at 4° C. The pH of the supernatant was then adjusted to 6.5 using a 1 M sodium phosphate solution.
An additional gel filtration chromatography step was added to the 2 step purification procedure described in WO 95/22985 (incorporated herein by reference). Briefly, the supernatant from the bacterial extract was loaded on a SP HiTrap column (Pharmacia) previously equilibrated at a flow rate of 2 mL/min in buffer A (50 mM sodium phosphate. pH 6.5, […], 1 mM EDTA, 5 mM DTT, 0.01% NP-40). The column was then washed with buffer A containing 0.15 M NaCl and the protease eluted by applying 10 column volumes of a linear 0.15 to 0.3 M NaCl gradient. NS3 protease-containing fractions were pooled and diluted to a final NaCl concentration of 0.1 M. The enzyme was further purified on a HiTrap Heparin column (Pharmacia) equilibrated in buffer B (25 mM sodium phosphate, pH 7.5, 10% glycerol, 5 mM DTT, 0.01% NP-40). The sample was loaded at a flow rate of 3 mL/min. The column was then washed with buffer B containing 0.15 M NaCl at a flow rate of 1.5 mL/min. Two step washes were performed in the presence of buffer B containing 0.3 or 1 M NaCl. The protease was recovered in the 0.3M NaCl wash, diluted 3-fold with buffer B, reapplied on the HiTrap Heparin column and eluted with buffer B containing 0.4 M NaCl. Finally, the NS3 protease-containing fractions were applied on a Superdex 75 HiLoad 16/60 column (Pharmacia) equilibrated in buffer B containing 0.3 M NaCl. The purity of the HCV NS3 protease obtained from the pooled tractions was judged to be greater than 95% by SDS-PAGE followed by densitometry analysis.
The enzyme was stored at −80° C. and was thawed on ice and diluted just prior to use.
Recombinant HCV NS3 Protease Radiometric Assay
The substrate used for the HCV NS3 protease radiometric assay, DDIVPC-SMSYTW [SEQ. ID NO. 2], is cleaved between the cysteine and the serine residues by the enzyme. The sequence DDIVPC-SMSYTW [SEQ. ID NO. 2] corresponds to the NS5A/NS5B natural cleavage site in which the cysteine residue in P2 has been substituted for a proline. […]

human leukocyte elastase = target: T2, human leukocyte elastase (Homo sapiens, UniProt P08246); experiment: Specificity assay: human leukocyte elastase; assay type: biochemical
T2 sequence (P08246 30-267): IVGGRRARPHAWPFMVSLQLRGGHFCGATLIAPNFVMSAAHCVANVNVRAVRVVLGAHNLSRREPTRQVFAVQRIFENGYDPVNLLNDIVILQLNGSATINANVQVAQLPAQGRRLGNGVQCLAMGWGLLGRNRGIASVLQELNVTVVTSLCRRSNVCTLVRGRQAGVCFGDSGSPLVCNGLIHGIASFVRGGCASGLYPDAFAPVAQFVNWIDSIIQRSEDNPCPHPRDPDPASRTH
Procedure: The final conditions for each assay were as follows:
[100 μM Succ-AAPF-pNA [SEQ. ID NO.
The percentage of inhibition was calculated using the formula:
[1-((UVinn-UVblank)/(UVctl-UVblank))]×100

[2] = target: T3, HCV NS3 protease type 1b/NS4A cofactor peptide (Hepatitis C virus genotype 1b, UniProt P26663); experiment: Recombinant HCV NS3 protease/NS4A cofactor peptide radiometric assay; assay type: biochemical, HCV genotype 1b; conditions: Table 5; first line of the cell; NS3 protease/NS4A cofactor peptide radiometric assay (Example 38); read-out: IC50
T3 construct: recombinant HCV NS3 protease (amino acid 1027 to 1206) was cloned in the pET11d bacterial expression vector; made in house; host or cells: E. coli BL21(DE3)pLysS
Procedure: Recombinant HCV NS3 Protease/NS4A Cofactor Peptide Radiometric Assay.
The enzyme was stored at −80° C., thawed on ice and diluted just prior to use in the assay buffer containing the NS4A cofactor peptide.
The substrate used for the NS3 protease/NS4A cofactor peptide radiometric assay, DDIVPC-SMSYTW [SEQ. ID NO. 2], is cleaved between the cysteine and the serine residues by the enzyme. The sequence DDIVPC-SMSYTW [SEQ. ID NO. 2] corresponds to the NS5A/NS5B natural cleavage site in which the cysteine residue in P2 has been substituted for a proline. The peptide substrate DDIVPC-SMSYTW [SEQ. ID NO. […] ID NO. […] [SEQ. ID NO. 5] (molar ratio enzyme: cofactor 1:100) in the absence or presence of inhibitors. The separation of substrate from products is performed by adding avidin-coated agarose beads to the assay mixture followed by filtration. […] ID NO. 4] product found in the filtrate allows for the calculation of the percentage of substrate conversion and of the percentage of inhibition.
Tris and Tris-HCl (UltraPure) were obtained from Gibco-BRL. Glycerol (UltraPure), MES and BSA were purchased from Sigma. TCEP was obtained from Pierce, DMSO from Aldrich and NaOH from Anachemia.
Assay buffer: 50 mM Tris HCl, pH 7.5, 30% (w/v) glycerol, 1 mg/mL BSA, 1 mM TCEP (TCEP added just prior to use from a 1 M stock solution in water).
Substrate: […] [SEQ. ID NO.
ID NO. 3] (˜1 nM final concentration).
The assay was performed in a 96-well polypropylene plate from Costar. Each well contained:
20 μL substrate/tracer in assay buffer;
10 μL±inhibitor in 20% DMSO/assay buffer;
10 μL NS3 protease 1b/NS4 cofactor peptide (molar ratio 1:100).
Blank (no inhibitor and no enzyme) and control (no inhibitor) were also prepared on the same assay plate.
The enzymatic reaction was initiated by the addition of the enzyme/NS4A peptide solution and the assay mixture was incubated for 40 min at 23° C. under gentle agitation. Ten (10) μL of 0.5N NaOH were added and 10 μL 1 M MES, pH 5.8 were added to quench the enzymatic reaction.
Twenty (20) μL of avidin-coated agarose beads (purchased from Pierce) were added in a Millipore MADP N65 filtration plate. The quenched assay mixture was transferred to the filtration plate, and incubated for 60 min at 23° C. under gentle agitation.
The plates were filtered using a Millipore MultiScreen Vacuum Manifold Filtration apparatus, and 40 μL of the filtrate was transferred in an opaque 96-well plate containing 60 μL of scintillation fluid per well.
The % inhibition was calculated with the following equation:
100-[(countsinh-countsblank)/(countsctl-countsblank)×100]

T1 sequence (P26663 1027-1206): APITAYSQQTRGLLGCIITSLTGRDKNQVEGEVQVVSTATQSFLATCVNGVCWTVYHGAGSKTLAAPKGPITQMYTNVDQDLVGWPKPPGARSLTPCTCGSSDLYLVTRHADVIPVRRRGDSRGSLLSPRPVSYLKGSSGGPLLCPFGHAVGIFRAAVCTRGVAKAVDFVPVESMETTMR
T3 sequence (P26663 1027-1206, other chains not shown): as the sequence (P26663 1027-1206) above

**Q.** How did the IC50 [1] turn out when `CCC[C@H](NC(=O)[C@@H]1C[C@@H](OCc2cccc(C)c2)CN1C(=O)[C@@H](NC(=O)[C@@H](NC(=O)[C@H](CC(=O)O)NC(=O)[C@H](CC(=O)O)NC(C)=O)[C@@H](C)CC)C(C)C)C(=O)O` [compound 205] (Ac-DDIV[Hyp](mXylylene)[Nva]-OH; C-terminus assumed) was run?
**A.** 6.7 µM

**Q.** Ac-DDIIPC [compound 113] was tested. Which IC50 [1] did it give?
**A.** 56 µM

**Q.** Ac-DDIVVC [compound 118] was tested. Which IC50 [1] did it give?
**A.** 133 µM

**Q.** With Ac-DEIVPC [compound 106] as the compound, how does the IC50 [1] read?
**A.** 16 µM

**Q.** What does the source list for `CC[C@@H]1C[C@]1(NC(=O)[C@@H]1C[C@@H](OCc2cccc3ccccc23)CN1C(=O)[C@@H](NC(=O)[C@@H](NC(=O)[C@@H](CCC(=O)O)NC(=O)[C@H](CC(=O)O)NC(C)=O)C1CCCCC1)C1CCCCC1)C(=O)O` [compound 509] (Ac-D[dE][Chg][Chg][Hyp](CH2(1-naphthyl))[Acca(2-Et,1R,2R)]-OH)?
**A.** IC50 (human leukocyte elastase): > 300 µM; IC50 [2]: 0.015 µM

**Q.** Which IC50 [1] does the source give for Ac-DDIVAC [compound 120] here?
**A.** 76 µM

**Q.** How did the IC50 (human leukocyte elastase) turn out when `CC[C@@H]1C[C@]1(NC(=O)[C@@H]1C[C@@H](OCc2cccc3ccccc23)CN1C(=O)[C@@H](NC(=O)[C@@H](NC(=O)[C@@H](CCC(=O)O)NC(=O)[C@H](CC(=O)O)NC(C)=O)C1CCCCC1)C(C)C)C(=O)O` [compound 518] (Ac-D[dE][Chg]V[Hyp](CH2(1-naphthyl))[Acca(2-Et,1R,2R)]-OH) was run?
**A.** > 300 µM

**Q.** And the IC50 [2]?
**A.** 0.011 µM

**Q.** With Ac-DDIVFC [compound 117] as the compound, how does the IC50 [1] read?
**A.** 25 µM

**Q.** For `CCC[C@H](NC(=O)[C@@H]1C[C@@H](OCc2ccc(C)cc2)CN1C(=O)[C@@H](NC(=O)[C@@H](NC(=O)[C@H](CC(=O)O)NC(=O)[C@H](CC(=O)O)NC(C)=O)[C@@H](C)CC)C(C)C)C(=O)O` [compound 206] (Ac-DDIV[Hyp](Meb)[Nva]-OH), which IC50 [1] is on record?
**A.** 6.4 µM

**Q.** How did the IC50 [1] turn out when Ac-DDLVPC [compound 112] was run?
**A.** 92 µM
